In article PMC9116245, “New 1,2,3-triazole linked ciprofloxacin-chalcones induce DNA damage by inhibiting human topoisomerase I& II and tubulin polymerization” (Journal of Enzyme Inhibition and Medicinal Chemistry, 2022):

How the values were obtained:
[1] = tested on: Caco-2; assay: MTT assay; assay type: cell-based; conditions: Homo sapiens; Caco-2, MTT assay, 24 h incubation
Outline: (§1)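 Colorectal lines treated with 1, 5, 10, 20, 40, 80 or 100 µM compound, or DMSO vehicle. Proliferation read by MTT reduction.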

[2] = tested on: HT-29; assay: MTT assay; assay type: cell-based; conditions: Homo sapiens; HT-29, MTT assay, 24 h incubation
Outline: as §1

[3] = tested on: HCT116; assay: MTT assay; assay type: cell-based; conditions: Homo sapiens, HCT-116, 24 h incubation
Outline: as §1

[4] = tested on: NCI-H226; assay: NCI one-dose screen; assay type: cell-based; conditions: Homo sapiens; NCI-H226, 10 µM; read-out: Growth Percent
Procedure: (§2) For screening of anticancer properties, all the developed compounds were chosen by the (NCI) for in-vitro antitumor evaluation. The assay was carried out using 59 human cancer cell lines obtained from nine tumour subpanels (breast, ovarian, melanoma, leukaemia, renal, CNS, lung, prostate, and colon cancer cell lines). Compounds were assessed at a 10 µM concentration. […] Also, hybrids 4a, 4b, 4e, 4i and 4j produced significant anti-proliferative effect in several cancer cells, particularly in leukaemia (RPMI-8226) and colon (HCT116) cells with growth percent of 47.87, −14.59, −24.56, −24.42, −15.84, −9.74, −53.36, −10.26, −31.29, and −39.51%, respectively.
(§3) The method description for NCI anticancer screening is provided in detail in the standard NCI-60 testing protocol.

[5] = tested on: UO-31; assay: NCI one-dose screen; assay type: cell-based; conditions: Homo sapiens; UO-31, 10 µM; read-out: Growth Percent
Procedure: as §2, §3

[6] = tested on: SK-MEL-2; assay: NCI one-dose screen; assay type: cell-based; conditions: Homo sapiens; SK-MEL-2, 10 µM; read-out: Growth Percent
Procedure: as §2, §3

[7] = tested on: MALME-3M; assay: NCI one-dose screen; assay type: cell-based; conditions: Homo sapiens, read-out: Growth Percent
Procedure: as §2, §3

[8] = tested on: SK-OV-3; assay: NCI one-dose screen; assay type: cell-based; conditions: Homo sapiens; SK-OV-3, 10 µM; read-out: Growth Percent
Procedure: as §2, §3

[9] = tested on: IGROV1; assay: NCI one-dose screen; assay type: cell-based; conditions: Homo sapiens, IGROV-1; IGROV1, 10 µM; read-out: Growth Percent
Procedure: as §2, §3

[10] = tested on: MOLT-4; assay: NCI one-dose screen; assay type: cell-based; conditions: Homo sapiens; MOLT-4, 10 µM; read-out: Growth Percent
Procedure: as §2, §3

[11] = tested on: A549/ATCC; assay: NCI one-dose screen; assay type: cell-based; conditions: Homo sapiens, read-out: Growth Percent
Procedure: as §2, §3

[12] = tested on: SK-MEL-28; assay: NCI one-dose screen; assay type: cell-based; conditions: Homo sapiens; SK-MEL-28, 10 µM; read-out: Growth Percent
Procedure: as §2, §3

[13] = tested on: MCF7; assay: NCI one-dose screen; assay type: cell-based; conditions: Homo sapiens; MCF7, 10 µM; read-out: Growth Percent
Procedure: as §2, §3

[14] = tested on: M14; assay: NCI one-dose screen; assay type: cell-based; conditions: Homo sapiens; M14, 10 µM; read-out: Growth Percent
Procedure: as §2, §3

[15] = tested on: SF-295; assay: NCI one-dose screen; assay type: cell-based; conditions: Homo sapiens; SF-295, 10 µM; read-out: Growth Percent
Procedure: as §2, §3

[16] = tested on: SF-539; assay: NCI one-dose screen; assay type: cell-based; conditions: Homo sapiens; SF-539, 10 µM; read-out: Growth Percent
Procedure: as §2, §3

[17] = tested on: KM12; assay: NCI one-dose screen; assay type: cell-based; conditions: Homo sapiens; KM12, 10 µM; read-out: Growth Percent
Procedure: as §2, §3

[18] = tested on: SR; assay: NCI one-dose screen; assay type: cell-based; conditions: Homo sapiens, read-out: Growth Percent
Procedure: as §2, §3

[19] = tested on: BT-549; assay: NCI one-dose screen; assay type: cell-based; conditions: Homo sapiens; BT-549, 10 µM; read-out: Growth Percent
Procedure: as §2, §3

[20] = tested on: HOP-92; assay: NCI one-dose screen; assay type: cell-based; conditions: Homo sapiens; HOP-92, 10 µM; read-out: Growth Percent
Procedure: as §2, §3

[21] = tested on: CCRF-CEM; assay: NCI one-dose screen; assay type: cell-based; conditions: Homo sapiens, read-out: Growth Percent
Procedure: as §2, §3

[22] = tested on: OVCAR-3; assay: NCI one-dose screen; assay type: cell-based; conditions: Homo sapiens; OVCAR-3, 10 µM; read-out: Growth Percent
Procedure: as §2, §3

[23] = tested on: NCI-H460; assay: NCI one-dose screen; assay type: cell-based; conditions: Homo sapiens; NCI-H460, 10 µM; read-out: Growth Percent
Procedure: as §2, §3

[24] = tested on: CAKI-1; assay: NCI one-dose screen; assay type: cell-based; conditions: Homo sapiens; CAKI-1, 10 µM; read-out: Growth Percent
Procedure: as §2, §3

[25] = tested on: MDA-MB-231/ATCC; assay: NCI one-dose screen; assay type: cell-based; conditions: Homo sapiens, read-out: Growth Percent
Procedure: as §2, §3

[26] = tested on: SNB-75; assay: NCI one-dose screen; assay type: cell-based; conditions: Homo sapiens; SNB-75, 10 µM; read-out: Growth Percent
Procedure: as §2, §3

[27] = tested on: TK-10; assay: NCI one-dose screen; assay type: cell-based; conditions: Homo sapiens; TK-10, 10 µM; read-out: Growth Percent
Procedure: as §2, §3

[28] = tested on: SK-MEL-5; assay: NCI one-dose screen; assay type: cell-based; conditions: Homo sapiens; SK-MEL-5, 10 µM; read-out: Growth Percent
Procedure: as §2, §3

[29] = tested on: HOP-62; assay: NCI one-dose screen; assay type: cell-based; conditions: Homo sapiens; HOP-62, 10 µM; read-out: Growth Percent
Procedure: as §2, §3

[30] = tested on: HCT-15; assay: NCI one-dose screen; assay type: cell-based; conditions: Homo sapiens; HCT-15, 10 µM; read-out: Growth Percent
Procedure: as §2, §3

[31] = tested on: ACHN; assay: NCI one-dose screen; assay type: cell-based; conditions: Homo sapiens, read-out: Growth Percent
Procedure: as §2, §3

[32] = tested on: NCI/ADR-RES; assay: NCI one-dose screen; assay type: cell-based; conditions: Homo sapiens, read-out: Growth Percent
Procedure: as §2, §3

[33] = tested on: T-47D; assay: NCI one-dose screen; assay type: cell-based; conditions: Homo sapiens, T47D, read-out: Growth Percent
Procedure: as §2, §3

[34] = tested on: 59 human cancer cell lines; assay: NCI one-dose screen, whole panel; assay type: cell-based; conditions: Homo sapiens, mean over the panel, read-out: Mean Growth Percent
Procedure: as §2, §3

[35] = tested on: RPMI-8226; assay: NCI one-dose screen; assay type: cell-based, human; conditions: Homo sapiens; RPMI-8226, 10 µM; read-out: Growth Percent
Procedure: as §2, §3

[36] = tested on: HCT-116; assay: NCI one-dose screen; assay type: cell-based, human; conditions: Homo sapiens; HCT-116, 10 µM; read-out: Growth Percent
Procedure: as §2, §3

CN(C)c1ccc(/C=C/C(=O)c2ccc(-n3cc(CN4CCN(c5cc6c(cc5F)c(=O)c(C(=O)O)cn6C5CC5)CC4)nn3)cc2)cc1 [Compound 4h, (E)-1-cyclopropyl-7–(4-((1–(4-(3-(4-(dimethylamino)phenyl)acryloyl)phenyl)-1H-1,2,3-triazol-4-yl)methyl)piperazin-1-yl)-6-fluoro-4-oxo-1,4-dihydroquinoline-3-carboxylic acid] showed an IC50 [1] of 6.39 ± 1.41 µM, an IC50 [2] of 21.7 ± 2.74 µM and an IC50 [3] of 5.09 ± 2.74 µM. For the same molecule, the activity at 10 µM [4] was 84.6%, the activity at 10 µM [5] was 61.9% and the activity at 10 µM [6] was 95.5%. The activity at 10 µM [7] was 96%, the activity at 10 µM [8] was 84.7% and the activity at 10 µM [9] was 69.9%. It also gave an activity at 10 µM [10] of 86%, an activity at 10 µM [11] of 93.5% and an activity at 10 µM [12] of 100%. For the same molecule, the activity at 10 µM [13] was 59.2%, the activity at 10 µM [14] was 87.4% and the activity at 10 µM [15] was 86.9%. The activity at 10 µM [16] was 73.6%, the activity at 10 µM [17] was 84.1% and the activity at 10 µM [18] was 63.2%. For the same molecule, the activity at 10 µM [19] was 73.7%, the activity at 10 µM [20] was 76.2% and the activity at 10 µM [21] was 84.3%. For the same molecule, the activity at 10 µM [22] was 96%, the activity at 10 µM [23] was 89.7% and the activity at 10 µM [24] was 69.8%. The activity at 10 µM [25] was 75.5%, the activity at 10 µM [26] was 70.8% and the activity at 10 µM [27] was 104%. The activity at 10 µM [28] was 86.2%, the activity at 10 µM [29] was 81.3% and the activity at 10 µM [30] was 97.6%. For the same molecule, the activity at 10 µM [31] was 89.8%, the activity at 10 µM [32] was 103% and the activity at 10 µM [33] was 86.7%. It also gave an activity at 10 µM [34] of 82%, an activity at 10 µM [35] of 44.3% and an activity at 10 µM [36] of 8.04%.

O=C(/C=C/c1ccc(Br)cc1)c1ccc(-n2cc(CN3CCN(c4cc5c(cc4F)c(=O)c(C(=O)O)cn5C4CC4)CC3)nn2)cc1 [Compound 4d, (E)-7-(4-((1-(4-(3-(4-bromophenyl)acryloyl)phenyl)-1H-1,2,3-triazol-4-yl)methyl)piperazin-1-yl)-1-cyclopropyl-6-fluoro-4-oxo-1,4-dihydroquinoline-3-carboxylic acid] gave an IC50 [1] of 7.19 ± 1.69 µM, an IC50 [2] of 62.5 ± 7.1 µM and an IC50 [3] of 8.67 ± 2.15 µM. It also gave an activity at 10 µM [4] of 74.8%, an activity at 10 µM [5] of 65.4% and an activity at 10 µM [6] of 102%. For the same molecule, the activity at 10 µM [7] was 87.7%, the activity at 10 µM [8] was 79% and the activity at 10 µM [9] was 79.4%. It also gave an activity at 10 µM [10] of 80.4%, an activity at 10 µM [11] of 90.5% and an activity at 10 µM [12] of 92%. For the same molecule, the activity at 10 µM [13] was 61.4%, the activity at 10 µM [14] was 88.1% and the activity at 10 µM [15] was 81.9%. It also gave an activity at 10 µM [16] of 82.5%, an activity at 10 µM [17] of 87.1% and an activity at 10 µM [18] of 21.3%. It also gave an activity at 10 µM [19] of 92.5%, an activity at 10 µM [20] of 88% and an activity at 10 µM [21] of 34.6%. The activity at 10 µM [22] was 84.9%, the activity at 10 µM [23] was 85.9% and the activity at 10 µM [24] was 68.7%. It also gave an activity at 10 µM [25] of 66.4%, an activity at 10 µM [26] of 85.7% and an activity at 10 µM [27] of 97.8%. It also gave an activity at 10 µM [28] of 79.7%, an activity at 10 µM [29] of 85.4% and an activity at 10 µM [30] of 90.6%. For the same molecule, the activity at 10 µM [31] was 93.4%, the activity at 10 µM [32] was 85.6% and the activity at 10 µM [33] was 101%. The activity at 10 µM [34] was 77.4%, the activity at 10 µM [35] was 6.02% and the activity at 10 µM [36] was 17.3%.
